The values that follow come from paper PMC9218946, “Identification of a Subtype-Selective Allosteric Inhibitor of GluN1/GluN3 NMDA Receptors” (Frontiers in Pharmacology, 2022).

Structures are written as SMILES. Counter-ions that a name gives are not always drawn.

In general, IC50 refers to the concentration at which inhibition is half-maximal.

In one assay the test system is GluN3A.
Assay: not given
Conditions: ref Yao and Mayer, 2006; cited from earlier work.
As to `NCC(=O)O` [glycine], the “higher affinity for GluN3A than for GluN1” value is 650 fold.

The target of a further assay is T1, GluN1/GluN3A receptors (UniProt Q05586+Q9R1M7). Briefly: High-throughput Fluo-4 calcium assay (FDSS/μCell) in HEK-293 cells stably expressing GluN1/GluN3A. The assay is classed as cell-based, human GluN1-1a, rat GluN3A. Further details: expressed in transfected cells. Conditions: primary and secondary screening. The procedure: The HEK-293 cells stably expressing GluN1/GluN3A receptors were seeded at a density of 10,000 cells/well in the 384-well plates, and expression was induced with 1 μg/ml doxycycline for 24–28 h. Then the culture medium was removed, Fluo-4 (Invitrogen) was loaded and the cells were incubated in the 37°C incubator away from light for 1 h ([Gee et al., 2000]). The plates were gently washed twice with Ca^2+-free buffer and then incubated with one of the 2560 compounds (from the Chinese National Compound Library) or DMSO (1% and 0.33%) for 20 min. A fixed concentration of 30 μM and dual concentrations of 10 μM and 30 μM were applied in the primary and secondary screening, respectively. Two replicates were set up for each condition. […] A FDSS/μCell platform (Hamamatsu) was used to measure the fluorescence signals. The excitation (Ex) and emission (Em) wavelengths were set to 480 and 540 nm, respectively. The inhibitory effects of tested compounds were compared by the ratios of fluorescence (F) with (F drug) and without (F control) the compounds. The F control value in these assays represented the value of basal Fluo-4 fluorescence plus glycine-stimulated fluorescence, and the F drug indicated the total Fluo-4 fluorescence after treatment of the drugs. Both the F drug and F control values were taken at the peak. The Ca^2+-free buffer used to dilute Fluo-4 and wash cell-plates contained (in mM): 140 NaCl, 5 KCl, 1 MgCl2, 10 glucose, 10 HEPES, and 0.5 EGTA. The pH was adjusted to 7.2 using NaOH. To dilute the compounds, 2 mM of free Ca^2+ was added in addition to the other components of the buffer.
T1 sequence (Q9R1M7 24-1135, other chains not shown): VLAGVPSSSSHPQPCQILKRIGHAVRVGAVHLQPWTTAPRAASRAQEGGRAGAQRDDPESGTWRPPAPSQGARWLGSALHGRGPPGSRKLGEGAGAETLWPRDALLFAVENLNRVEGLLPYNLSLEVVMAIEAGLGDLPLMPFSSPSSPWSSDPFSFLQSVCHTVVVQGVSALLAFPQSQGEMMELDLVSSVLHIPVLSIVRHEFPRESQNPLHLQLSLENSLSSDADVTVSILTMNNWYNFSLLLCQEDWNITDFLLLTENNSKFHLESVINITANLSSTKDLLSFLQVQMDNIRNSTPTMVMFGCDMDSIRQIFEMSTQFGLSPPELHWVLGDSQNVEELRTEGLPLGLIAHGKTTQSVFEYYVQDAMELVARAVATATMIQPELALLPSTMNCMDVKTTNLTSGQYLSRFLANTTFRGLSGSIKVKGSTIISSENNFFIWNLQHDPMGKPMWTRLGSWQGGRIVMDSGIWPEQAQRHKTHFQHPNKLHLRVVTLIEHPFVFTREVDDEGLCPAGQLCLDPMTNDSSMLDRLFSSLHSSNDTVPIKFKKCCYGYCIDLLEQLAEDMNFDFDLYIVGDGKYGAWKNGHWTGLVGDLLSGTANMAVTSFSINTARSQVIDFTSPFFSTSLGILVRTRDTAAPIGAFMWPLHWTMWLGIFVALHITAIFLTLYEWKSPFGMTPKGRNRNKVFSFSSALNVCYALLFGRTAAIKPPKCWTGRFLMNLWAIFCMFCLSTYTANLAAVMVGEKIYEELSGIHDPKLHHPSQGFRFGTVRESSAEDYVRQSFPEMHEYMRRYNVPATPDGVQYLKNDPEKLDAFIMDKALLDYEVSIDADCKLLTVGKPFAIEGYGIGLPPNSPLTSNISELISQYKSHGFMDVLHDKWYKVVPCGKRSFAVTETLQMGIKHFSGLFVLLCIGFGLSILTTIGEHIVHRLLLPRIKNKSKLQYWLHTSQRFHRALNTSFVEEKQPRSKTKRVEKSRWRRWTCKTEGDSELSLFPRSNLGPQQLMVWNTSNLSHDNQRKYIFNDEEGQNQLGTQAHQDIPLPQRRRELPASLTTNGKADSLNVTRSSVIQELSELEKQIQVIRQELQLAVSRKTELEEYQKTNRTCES
Turning to `O=C(O)c1cc(=O)c2c(Cl)cc(Cl)cc2[nH]1` [5,7-DCKA], the “identification in HTS” value was “identified in both the primary screening and secondary screening”.

As to `N[C@H](CO)C(=O)O` [D-serine], the “identification in HTS” value is “identified in both the primary screening and secondary screening”.

Regarding `O=c1[nH]c2cc(Cl)ccc2c(O)c1-c1cccc(Oc2ccccc2)c1` [L-701324], the “identification in HTS” value is “identified in both the primary screening and secondary screening”.

In the case of `CCOC(=O)Nc1ccc(NCc2ccc(F)cc2)nc1N` [flupirtine maleate], the “identification in HTS” value is “identified in both the primary screening and secondary screening”.

As for `Nc1nc2ccc(OC(F)(F)F)cc2s1` [riluzole], the “identification in HTS” value was “identified in both the primary screening and secondary screening”.

In another assay the target is T1, GluN1/GluN3A receptors. The assay can be described thus: Whole-cell patch-clamp recording on GluN1/GluN3A Flp-in T-REx 293 stable cell lines. The assay is classed as cell-based, human GluN1-1a, rat GluN3A. Further details: expressed in transfected cells. As to conditions: 3 μM compound; whole-cell patch-clamp; mean ± SEM; drug application order as in FDSS/μCell Ca2+ imaging (CGP-78608, then glycine). The protocol:
To establish GluN1/GluN3A stable cell lines, the human GluN1-1a (GenBank: NP_015566.1) and the rat GluN3A (GenBank: NP_612555.1) genes were subcloned into the pcDNA5-FRT-To and pcDNA3.1 vectors, respectively. An EGFP tag was added to the C-terminus of GluN1 or GluN3A using a T2A linker for identification of transfected cells during transient transfection. Point mutations were introduced by site-directed mutagenesis using PrimeSTAR (Takara). The human GluN2A (GenBank: NP_000824.1) gene was subcloned into the pcDNA3.1 vector. The chimeras GluN3A^670-673 MWPL/LEPF and GluN2A^550-553 LEPF/MWPL were generated using In-Fusion HD Cloning kits (Takara). All constructs were confirmed by DNA sequencing (Beijing Genomics Institute).
The Flp-in T-Rex 293 cell lines (Invitrogen), stably expressing GluN1/GluN3A were grown in DMEM basal medium (Gibco) supplemented with 10% fetal bovine serum (FBS, Invitrogen), 15 μg/ml blasticidin S (Invitrogen), 50 μg/ml hygromycin B (Invitrogen) and 500 μg/ml G418 (Gibco). Expression in cell lines was induced with 1 μg/ml doxycycline (Invitrogen) 24–28 h prior to the experiments. Chinese hamster ovary (CHO) cells were grown in DMEM-F12 basal medium (Gibco) supplemented with 10% FBS. In the study on the action sites of WZB117, all whole-cell patch-clamp recordings were performed on CHO cells. The transfections were carried out using Lipofectamine 3000 transfection reagent (Thermo Fisher) according to the manufacturer’s instructions. All cells mentioned above were cultured in a 5% CO2 incubator at 37°C and passaged every other day at a ratio of 1:3.
Whole-cell patch-clamp recordings were performed at room temperature (22–25°C) using an EPC-10 amplifier and Patch Master Software (HEKA). Pipettes were pulled from borosilicate glass capillaries (World Precision Instruments), and the resistances were 3–5 MΩ when filled with the intracellular solution. The extracellular solution contained (in mM): 140 NaCl, 2.8 KCl, 1 CaCl2, 10 HEPES and 20 sucrose (290–300 mOsm), pH adjusted to 7.3 using NaOH. The pipette solution contained (in mM): 115 CsF, 10 CsCl, 10 HEPES and 10 BAPTA (280–290 mOsm), pH adjusted to 7.2 using CsOH ([Grand et al., 2018]). When recording in hippocampal neurons, the extracellular solution contained (in mM): 140 NaCl, 5 KCl, 1 CaCl2, 1.25 MgCl2, 10 glucose, and 10 HEPES, and the pH was adjusted to 7.4 using NaOH, and the pipette solution contained (in mM): 140 KCl, 1 MgCl2, 10 EGTA, and 10 HEPES, and the pH was adjusted to 7.2 using KOH ([Xie et al., 2020]). Drug-containing solutions were applied through an RSC-200 Rapid Solution Changer with a 9-tube head (BioLogic Co., France), in which the cell is positioned close to the output of a capillary. The solution, containing either one drug or a combination of different drugs, to be assayed flows out of the capillary at a moderate flow rate by gravity. The lifted cell, exposed to this stream, rapidly equilibrates in the perfusion solution. Whole-cell patch-clamp recordings in heterologous cells and hippocampal neurons were performed at a holding potential of −60 mV. Currents were sampled at 10 kHz and low pass filtered at 2.9 kHz. To record the native GluN1/GluN3 receptor-mediated currents, the extracellular solution was supplemented with 10 μM bicuculline (Sigma-Aldrich), 2 μM NBQX (Topscience), 100 μM D-APV (MCE), and 50 μM strychnine (UHN Shanghai) to block γ-aminobutyric acid type A (GABAA), α-amino-3-hydroxy-5-methylisoxazole-4-propionate (AMPA), GluN1/GluN2 NMDA and glycine receptors, respectively. To record the native GluN2-NMDARs-mediated currents, 10 μM bicuculline and 2 μM NBQX were added into the extracellular solution to block GABAA receptors and AMPA receptors, respectively ([Grand et al., 2018]; [Otsu et al., 2019]; [Zhu et al., 2020]).
Patch-clamp data were processed using Clampfit 10.4 (Molecular Device, Sunnyvale, CA, United States) and analyzed with GraphPad Prism 5.0 (GraphPad Software, San Diego, CA, United States). […]
A general note: The patch-clamp technique gives a direct electrical read-out from membranes.
With `COc1ccc(S(=O)(=O)N(CCO)c2ccccc2CN(C)C/C=C/c2ccc(Cl)cc2)cc1.O=P(O)(O)O` [KN93 Phosphate], the “I drug/I control” value was found to be 0.90 ± 0.02.

For `CCCCCCCCCCCCCCCCn1cc[n+](Cc2ccccc2)c1C.[I-]` [NH125], the “I drug/I control” value was found to be 0.84 ± 0.03.

The same assay, now with this note: Flp-In-T-REx-293; read-out: I drug/I control.
Turning to `CC(C)c1cc(C(C)C)c(CC(=O)NS(=O)(=O)Oc2c(C(C)C)cccc2C(C)C)c(C(C)C)c1` [Avasimibe], the remaining activity at 3 µM came out at 86 ± 3%.

Regarding `CNc1nc(-c2ccc3c(N)n[nH]c3c2)cc(N2C[C@@H](C(=O)NC3CCCCC3)CC[C@H]2C)n1` [GSK2334470], the remaining activity at 3 µM is 84 ± 4%.

`COc1cc(OC)c(C=C2C(O)=Nc3ccccc32)c(OC)c1` [IC261]: the remaining activity at 3 µM stood at 88 ± 1%.

In the case of `NC(=O)N1CCC(CC(=O)N2CCC([C@H]3c4ncc(Br)cc4CCc4cc(Cl)cc(Br)c43)CC2)CC1` [Lonafarnib], the remaining activity at 3 µM was found to be 98 ± 2%.

`O=C(O)c1cc(O)c2c(c1)C(=O)c1cccc(O)c1C2=O` [Rhein]: the remaining activity at 3 µM was found to be 80 ± 4%.

Turning to `Cc1ccc(CN(Cc2ccc(-c3ccccc3S(=O)(=O)NC#N)cc2)C(=O)c2ccccc2Cl)cc1` [S0859, 2-chloro-N-[2'-(N-cyanosulfamoyl)biphenyl-4-ylmethyl]-N-(4-methylbenzyl) benzamide], the remaining activity at 3 µM amounted to 48 ± 2%.

As to `Cc1[nH]c(/C=C2\C(=O)Nc3ccccc32)c(C)c1CCC(=O)O` [SU6668], the remaining activity at 3 µM is 89 ± 4%.

For the compound `CC(C)(O)CC(=O)NCCn1ccc2ncnc(Nc3ccc(Oc4cccc(C(F)(F)F)c4)c(Cl)c3)c21` [TAK285], the remaining activity at 3 µM came out at 92 ± 6%.

Turning to `Nc1n[n+]([O-])c2ccccc2[n+]1[O-]` [Tirapazamine], the remaining activity at 3 µM amounted to 103 ± 5%.

On to `Oc1ccc(-c2nc3cc(O)cc(Br)c3o2)cc1` [WAY200070, 7-bromo-2-(4-hydroxyphenyl) benzoxazol-5-ol], for which the remaining activity at 3 µM came to 53 ± 2%.

The next assay addresses GluN1/GluN3 receptors.
Assay: not given
Further details: method as in Zhu et al., 2020. Conditions: ref Zhu et al., 2020; cited from earlier work.
As to `COc1ccc(OCC(c2ccc(OC)cc2)N2Cc3ccccc3C2=O)cc1` (stereo not shown) [EU1180-438], the IC50 is 1800 ± 300 nM.
